ChEMBL document CHEMBL1140598, “A review of anti-infective and anti-inflammatory chalcones” (Eur J Med Chem, 2007)
In brackets after ≈: the same amount, converted by molar mass.

Assays:
[1] = system: Staphylococcus aureus; experiment: Antibacterial activity against Staphylococcus aureus; format: functional, organism-based
[2] = system: Plasmodium falciparum; experiment: Antimalarial activity against chloroquine-resistant Plasmodium falciparum K1 by [3H]hypoxanthine incorporation; format: functional, organism-based
[3] = system: Leishmania donovani; experiment: Inhibition of Leishmania donovani amastigotes in human monocyte-derived macrophages; format: functional, organism-based
[4] = system: Leishmania major; experiment: Growth inhibition of Leishmania major promastigotes assessed as [3H]thymidine incorporation; format: functional, organism-based
[5] = Inhibition of Leishmania donovani solubilized fumarate reductase
[6] = system: Mycobacterium tuberculosis; experiment: Antibacterial activity against Mycobacterium tuberculosis H37Rv at 12.5 ug/mL; format: functional
[7] = system: Plasmodium falciparum; experiment: Antimalarial activity against Plasmodium falciparum; format: functional, organism-based
[8] = system: Plasmodium falciparum; experiment: Antiplasmodial activity against chloroquine-sensitive Plasmodium falciparum poW by [3H]hypoxanthine incorporation; format: functional, organism-based
[9] = system: Human immunodeficiency virus 1; experiment: Antiviral activity against HIV1 3B assessed as inhibition of p24 antigen production in human PBMCs; format: functional, organism-based; conditions: Human immunodeficiency virus 1, 3B
[10] = system: Human immunodeficiency virus 1; experiment: Inhibition of HIV1 p24 antigen production in human C8166 lymphocytes; format: functional, organism-based; conditions: Human immunodeficiency virus 1, C8166
[11] = system: Human immunodeficiency virus 1; experiment: Inhibition of HIV1 reverse transcriptase production in human C8166 lymphocytes; format: functional, organism-based; conditions: Human immunodeficiency virus 1, C8166
[12] = system: Plasmodium falciparum; experiment: Antiplasmodial activity against multiresistant Plasmodium falciparum Dd2 by [3H]hypoxanthine incorporation; format: functional, organism-based
[13] = target: Protease (Human immunodeficiency virus 1) (UniProt Q9YQ12); experiment: Inhibition of HIV1 protease at 50 ug/mL
[14] = system: RAW; experiment: Inhibition of nitric oxide production in LPS-stimulated mouse RAW 264.7 cells; format: functional, cell-based
[15] = system: Candida albicans; experiment: Antifungal activity against Candida albicans; format: functional, organism-based
[16] = system: Cryptococcus neoformans; experiment: Antifungal activity against Cryptococcus neoformans; format: functional, organism-based
[17] = system: Trichophyton rubrum; experiment: Antifungal activity against Trichophyton rubrum; format: functional
[18] = system: Plasmodium falciparum; experiment: Inhibition of ring to schizont stage maturation in Plasmodium falciparum NF54 at 2 ug/mL; format: functional
[19] = system: Microsporum canis; experiment: Antifungal activity against Microsporum canis; format: functional
[20] = system: Microsporum; experiment: Antifungal activity against Microsporum gypseum; format: functional
[21] = system: Trichophyton benhamiae; experiment: Antifungal activity against Trichophyton mentagrophytes; format: functional, Arthroderma benhamiae
[22] = system: Epidermophyton floccosum; experiment: Antifungal activity against Epidermophyton floccosum; format: functional
[23] = system: Neutrophil; experiment: Superoxide radical scavenging activity in stimulated human neutrophils; format: functional, cell-based
[24] = Superoxide radical scavenging activity by hypoxanthine / xanthine oxidase system; format: functional
[25] = system: Escherichia coli; experiment: Antibacterial activity against Escherichia coli; format: functional
[26] = system: Staphylococcus aureus; experiment: Antibacterial activity against methicillin-resistant Staphylococcus aureus; format: functional, organism-based
[27] = system: Enterococcus faecium; experiment: Antibacterial activity against Enterococcus faecium; format: functional
[28] = system: Neutrophil; experiment: Inhibition of fMLP/CB-stimulated release of lysozyme in rat neutrophils; format: functional, cell-based
[29] = system: Neutrophil; experiment: Inhibition of fMLP/CB-stimulated release of beta-glucuronidase in rat neutrophils; format: functional, cell-based
[30] = system: RAW; experiment: Inhibition of prostaglandin E2 production in LPS-stimulated mouse RAW 264.7 cells at 10 uM; format: functional
[31] = system: RAW; experiment: Inhibition of nitric oxide production in LPS-stimulated mouse RAW 264.7 cells at 10 uM; format: functional
[32] = system: Rhizoctonia solani; experiment: Antifungal activity against Rhizoctonia solani; format: functional
[33] = system: Colletotrichum truncatum; experiment: Antifungal activity against Colletotrichum capsici; format: functional
[34] = system: Fusarium oxysporum; experiment: Antifungal activity against Fusarium oxysporum; format: functional
[35] = system: Trypanosoma cruzi; experiment: Growth inhibition of Trypanosoma cruzi epimastigotes; format: functional, organism-based
[36] = system: Human immunodeficiency virus; experiment: Antiviral activity against HIV; format: functional, organism-based; conditions: Human immunodeficiency virus 1
[37] = system: Diaporthe longicolla; experiment: Antifungal activity against Phomopsis longicolla Hobbs CE117; format: functional
[38] = system: Colletotrichum truncatum; experiment: Antifungal activity against Colletotrichum truncatum CE175; format: functional, Glomerella truncata
[39] = system: Staphylococcus haemolyticus; experiment: Antibacterial activity against Staphylococcus haemolyticus; format: functional
[40] = system: Staphylococcus epidermidis; experiment: Antibacterial activity against Staphylococcus epidermidis; format: functional
[41] = target: Protease (Human immunodeficiency virus 1, UniProt Q9YQ12); experiment: Inhibition of HIV1 protease
[42] = system: Plasmodium falciparum; experiment: Antiplasmodial activity against chloroquine-sensitive Plasmodium falciparum Dd2 by [3H]hypoxanthine incorporation; format: functional, organism-based
[43] = system: Plasmodium falciparum; experiment: Antiplasmodial activity against chloroquine-sensitive Plasmodium falciparum 3D7 by [3H]hypoxanthine incorporation; format: functional, organism-based
[44] = system: Leishmania donovani; experiment: Antileishmanial activity against Leishmania donovani promastigotes at 50 ug/mL; format: functional
[45] = system: Leishmania donovani; experiment: Antileishmanial activity against Leishmania donovani amastigotes in mouse macrophages at 50 ug/mL; format: functional
[46] = system: Plasmodium falciparum; experiment: Antiplasmodial activity against chloroquine-sensitive Plasmodium falciparum D6; format: functional, organism-based
[47] = system: Plasmodium falciparum; experiment: Antiplasmodial activity against chloroquine-resistant Plasmodium falciparum W2; format: functional, organism-based
[48] = system: Plasmodium falciparum; experiment: Inhibition of ring to schizont stage maturation in Plasmodium falciparum NF54 at 10 ug/mL; format: functional
[49] = system: Plasmodium falciparum; experiment: Inhibition of ring to schizont stage maturation in Plasmodium falciparum NF54 at 50 ug/mL; format: functional
[50] = system: Leishmania braziliensis; experiment: Growth inhibition of Leishmania braziliensis promastigotes; format: functional, organism-based

Protease (Human immunodeficiency virus 1), sequence (Q9YQ12 as listed by the source): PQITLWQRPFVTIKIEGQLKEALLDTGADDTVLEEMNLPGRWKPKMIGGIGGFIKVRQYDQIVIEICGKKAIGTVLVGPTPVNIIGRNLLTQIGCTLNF
Protease, sequence (Q9YQ12 whole entry): as the sequence (Q9YQ12 as listed by the source) above

C=CC(C)(C)c1cc(/C=C/C(=O)c2ccc(O)cc2)c(OC)cc1Cl
MIC [1]: 10 µg/mL

O=C(/C=C/c1ccc(F)cc1F)c1ccc(O)cc1O
IC50 [2]: 20 µM

COc1ccc(/C=C/C(=O)c2ccc(OC)cc2OC)c(OC)c1
IC50 [2]: 6.5 µM

C=CCOc1ccc(C(=O)/C=C/c2ccc(OC)cc2OC)cc1
IC50 [3]: 0.65 µM
IC50 [4]: 4 µM
IC50 [5]: 153 µM

CCc1ccc(/C=C/C(=O)c2ccc(OC)cc2OC)cc1
IC50 [2]: 6.5 µM

O=C(/C=C/c1cccc(I)c1)c1ccccc1O
inhibition at 12.5 µg/mL [6]: 90%

COc1cc(/C=C/C(=O)c2ccc(NC(=O)Nc3ccc(Cl)cc3)cc2)cc(OC)c1OC
IC50 [7]: 1.76 µM

O=C(Nc1ccc(Cl)cc1)Nc1ccc(C(=O)/C=C/c2ccc(Cl)cc2Cl)cc1
IC50 [7]: 1.76 µM

COc1cc(O)c(CC=C(C)C)c(O)c1C(=O)/C=C/c1ccc(O)cc1 [XANTHOHUMOL]
IC50 [8]: 8.2 µM
EC50 [9]: 20.7 µg/mL (≈ 58.5 µM)
EC50 [10]: 1.28 µg/mL (≈ 3.61 µM)
EC50 [11]: 0.5 µg/mL (≈ 1.41 µM)
IC50 [12]: 24 µM

O=C(CCc1ccc(O)cc1)c1c(O)cc(O)cc1O
inhibition [13]: 27%

COc1ccc(OC)c(C(=O)/C=C/c2ccc(N(C)C)cc2)c1
IC50 [14]: 0.7 µM

O=C(Nc1ccc(Cl)cc1)Nc1ccc(C(=O)/C=C/c2ccc(F)cc2F)cc1
IC50 [7]: 1.76 µM

C=C(C)C(O)Cc1c(O)ccc(C(=O)/C=C/c2ccc(O)cc2)c1O (stereo unspecified)
IC50 [15]: 15 µg/mL (≈ 44.1 µM)
IC50 [16]: 7 µg/mL (≈ 20.6 µM)

COc1cc(O)c(C(=O)/C=C/c2ccccc2Cl)c(OC)c1
MIC [17]: 12.5 µg/mL (≈ 39.2 µM)

CC(C)=CCc1cc(C(=O)/C=C/c2ccc(O)cc2)c(O)c(CC=C(C)C)c1O [MEDICAGENIN]
inhibition at 2 µg/mL [18]: 100%

COc1cccc(/C=C/C(=O)c2ccc(Br)cc2)c1
MIC [19]: 25 µg/mL (≈ 78.8 µM)
MIC [20]: 1.5 µg/mL (≈ 4.73 µM)
MIC [17]: 3 µg/mL (≈ 9.46 µM)
MIC [21]: 3 µg/mL (≈ 9.46 µM)
MIC [22]: 0.5 µg/mL (≈ 1.58 µM)

COc1ccc(C(=O)/C=C/c2ccc(N(C)C)cc2)cc1OC
IC50 [23]: 0.1 µM
IC50 [24]: 0.3 µM

Cc1cc(C)cc(-c2ccc(N3CCNCC3)c(/C=C/C(=O)c3cccc(NCCN(C)C)c3)c2)c1
MIC [25]: 5 µM (≈ 2.41 µg/mL)
MIC [1]: 2 µM
MIC [26]: 2 µM (≈ 0.965 µg/mL)
MIC [27]: 5 µM (≈ 2.41 µg/mL)

O=C(/C=C/c1ccccc1O)c1ccccc1O
IC50 [28]: 1.4 µM
IC50 [29]: 1.6 µM

O=C(/C=C/c1ccc(O)c(O)c1)c1ccc(O)cc1O
inhibition [13]: 50%

COc1ccc(C(=O)/C=C/c2ccc(F)cc2F)c(OC)c1
IC50 [2]: 6.5 µM

COc1ccc(C(=O)/C=C/c2ccc(C(F)(F)F)cc2)c(OC)c1OC
IC50 [2]: 6.5 µM

COc1ccc(/C=C/C(=O)c2ccccc2O)c(OC)c1
IC50 [3]: 0.65 µM
IC50 [4]: 4 µM

COc1cc(OC)c(/C=C/C(=O)c2ccccc2C(F)(F)F)c(OC)c1
inhibition at 10 µM [30]: 76.3%
inhibition at 10 µM [31]: 76.3%

O=C(/C(Br)=C(\Br)c1cccc([N+](=O)[O-])c1)c1cccc([N+](=O)[O-])c1
MIC [32]: 6.25 µg/mL (≈ 13.7 µM)
MIC [33]: 6.25 µg/mL (≈ 13.7 µM)
MIC [34]: 6.25 µg/mL (≈ 13.7 µM)

O=C(/C=C/c1ccccc1)c1ccccc1O [2'-HYDROXYCHALCONE]
inhibition at 12.5 µg/mL [6]: 61%

CN(C)c1ccc(/C=C/C(=O)c2ccc(O)cc2)cc1
IC50 [2]: 20 µM

O=C(/C=C/c1ccc(Cl)cc1)c1ccccc1 [4-CHLORO CHALCONE]
IC50 [35]: 21.9 µM

COc1c(C)c(O)c(C(=O)/C=C(\O)c2ccccc2)c(O)c1C=O
EC50 [36]: 0.022 µg/mL (≈ 0.067 µM)

COc1c(O)ccc(C(=O)/C=C/c2ccccc2)c1O [LARREIN]
MIC [37]: 6.25 µg/mL (≈ 23.1 µM)
MIC [38]: 6.25 µg/mL (≈ 23.1 µM)

O=C(/C=C/c1ccc(O)cc1)c1ccc(O)cc1O [ISOLIQUIRITIGENIN]
MIC [1]: 250 µg/mL
MIC [39]: 250 µg/mL (≈ 976 µM)
MIC [40]: 250 µg/mL (≈ 976 µM)

COc1ccc(/C=C/C(=O)c2ccccc2)c(OC)c1
IC50 [3]: 0.65 µM
IC50 [4]: 4 µM

COc1cc(O)cc(O)c1C(=O)/C=C/c1ccccc1 [CARDAMOMIN]
IC50 [41]: 115 µM
inhibition [13]: 75.1%

O=C(/C=C/c1ccccc1)c1ccc(Cl)cc1O
inhibition at 12.5 µg/mL [6]: 89%

CCCCOc1ccc(C(=O)/C=C/c2ccc(OC)cc2OC)cc1
IC50 [42]: 14.8 µM
IC50 [5]: 118 µM
IC50 [43]: 8.9 µM

Cc1ccc(/C=C/C(=O)c2ccc(C)cc2)cc1 [4,4'-DIMETHYLCHALCONE]
MIC [33]: 6.25 µg/mL (≈ 26.4 µM)

CC1(C)C=Cc2c(ccc(C(=O)/C=C/c3ccc(O)cc3)c2O)O1
Activity [44]: 84%
Activity [45]: 74%

COc1cc(/C=C/C(=O)c2ccc(O)cc2O)ccc1O [HOMOBUTEIN]
IC50 [46]: 10.3 µM
IC50 [47]: 10.3 µM

COc1cc(/C=C/C(=O)c2ccc(O)c(CC=C(C)C)c2O)ccc1O [CROTAORIXIN]
inhibition at 10 µg/mL [48]: 100%
inhibition at 50 µg/mL [49]: 100%

O=C(/C=C/c1cccc(Cl)c1)c1ccccc1O
inhibition at 12.5 µg/mL [6]: 90%

COc1cccc(OC)c1C(=O)/C=C/c1ccc(N(C)C)cc1
IC50 [14]: 0.6 µM

CC(C)=CCc1cc(/C=C/C(=O)c2ccc(O)cc2O)cc(O)c1O [5'-PRENYLBUTEIN]
IC50 [46]: 10.3 µM
IC50 [47]: 10.3 µM

O=C(/C=C/c1ccc(Cl)c(Cl)c1)c1ccc(O)cc1
IC50 [2]: 20 µM

O=C(/C=C/c1ccccc1)c1ccc(O)cc1O [2',4'-DIHYDROXYCHALCONE]
MIC [37]: 6.25 µg/mL (≈ 26 µM)
MIC [38]: 6.25 µg/mL (≈ 26 µM)

O=C(/C=C/c1ccccc1)c1ccccc1 [CHALCONE]
IC50 [50]: 13.7 µM

CC(C)=CCc1c(O)ccc(C(=O)/C=C/c2ccc(O)cc2)c1O [ISOBAVACHALCONE]
IC50 [15]: 3 µg/mL (≈ 9.25 µM)
IC50 [16]: 7 µg/mL (≈ 21.6 µM)

COc1ccc(C(=O)/C=C/c2ccccc2)c(O)c1
inhibition at 12.5 µg/mL [6]: 78%

COc1ccc(C(=O)/C=C/c2ccc(C(F)(F)F)cc2)c(OC)c1
IC50 [2]: 6.5 µM

COc1ccc(C(=O)/C=C/c2ccc(Cl)cc2Cl)c(OC)c1OC
IC50 [2]: 6.5 µM

COc1cc(O)c(C(=O)CCc2ccc(O)cc2)c(O)c1 [ASEBOGENIN]
IC50 [1]: 10 µg/mL (≈ 34.7 µM)
IC50 [26]: 4.5 µg/mL (≈ 15.6 µM)

COc1ccc(/C=C/C(=O)c2ccc(O)cc2)c(OC)c1
IC50 [3]: 0.65 µM
IC50 [4]: 4 µM
